Measurements published in patent publication EP0889886B1, “NOVEL PHENANTHRIDINES SUBSTITUTED IN THE 6 POSITION” (ALTANA Pharma AG, priority 1996, dated 1997).

Test system: PDE IV
Test: Inhibition of PDE IV activity (method of Bauer and Schwabe, adapted to microtiter plates)
Type: biochemical
Conditions: Hemmung der PDE IV-Aktivität
Experimental: Hierbei erfolgt im ersten Schritt die PDE-Reaktion. In einem zweiten Schritt wird das entstandene 5'-Nukleotid durch eine 5'-Nukleotidase des Schlangengiftes von Crotalus Atrox zum ungeladenen Nukleosid gespalten. Im dritten Schritt wird das Nukleosid auf lonenaustauschsäulen vom verbliebenen geladenen Substrat getrennt. Die Säulen werden mit 2 ml 30 mM Ammoniumformiat (pH 6,0) direkt in Minivials eluiert, in die noch 2 ml Szintillatorflüssigkeit zur Zählung gegeben wird.

Row | SMILES | -log IC50
1 | CCOc1cc2c(cc1OC)C(c1ccc(N(C)S(=O)(=O)c3ccc(C)cc3)cc1)=N[C@@H]1CCCC[C@H]21 (racemic) [Verbindung 36, (+/-)-cis-9-Ethoxy-8-methoxy-6-[(N-methyl-4-p-toluolsulfonamido)phenyl]-1,2,3,4,4a,10bhexahydrophenanthridin] | 9.09
2 | CCOc1cc2c(cc1OCC)[C@@H]1CCCC[C@@H]1N=C2c1ccc(O)cc1 (racemic) [Verbindung 37, (+/-)-cis-8,9-Diethoxy-6-(4-hydroxyphenyl)-1,2,3,4,4a,10b-hexahydrophenanthridin] | 8.04
